From US20090192192A1, “INHIBITORS OF BIOFILM FORMATION OF GRAM-POSITIVE AND GRAM-NEGATIVE BACTERIA” (priority 2007, published 2009)

The molecules below were run on Pseudomonas aeruginosa PAO1 (assay: MBEC assay, biofilm formation of P. aeruginosa PAO1). Conditions: compound concentration 100 μM, class symbols.
Format: cell-based
Experimental: The compound to be tested was dissolved in DMSO to obtain a concentration that was 100 times that of the final concentration required (1 mM for the 10 μM assay and 10 mM for the 100 μM assay). 1.5 μL of the above solution was placed into each well of a 96 well plate (final volume in each well=150 μL, final DMSO concentration of 1% (v/v)).
To grow the organism and form a biofilm, a cryogenic stock of the test organism (at −70° C.) was used. A first sub-culture was streaked out onto TSA (tryptic soy agar), upon which the plate was incubated at 35±2° C. for 24 hours and stored wrapped in parafilm at 4° C. afterwards. From this first sub-culture, a second sub-culture was streaked out onto TSA. The plate was incubated at 35±2° C. for 24 hours. The second sub-culture was used within 24 hours starting from the time it was first removed from incubation. Using the second sub-culture an inoculum in 3 mL sterile water that matches a 0.5 McFarland Standard (1.5×10^8 cells per mL) was created in a glass test tube using a sterile cotton swab. 2.2 mL of this solution was diluted in 22 mL 100% TSB (tryptic soy broth) medium to a cell density of approximately […]. The diluted organism was inverted 3-5 times to achieve uniform mixing of the organism. One sample (100 μl) of the diluted organism was used for an inoculum check by serially diluting and spot plating on TSA.
To prepare a challenge plate, […] of the diluted organism was added to each well of a 96 well plate except the sterility control wells. The test compounds were added to the wells to make up final concentrations of 10 μM and […] (1.5 μL/well) in the designated location in the test plate. 128.5 μL of 100% universal neutralizer (1% Tween 80 in Cation Adjusted Mueller Hinton Broth, CAMHB) was placed in each of the wells. 130 μL of media was added to the growth control wells. 128.5 μL of media+1.5 μL of DMSO were added to a second set of growth control wells. 150 μL of media was added to the sterility controls. Each sample was run in triplicate. The plate was covered by a lid with a peg per well and wrapped in parafilm and placed on a shaker in a humidified incubator (GeneVac) at 35±+2° C. for 24 hours set at 110 rpm.
Rinse plate(s) of 0.9% saline (200 μL per well) were prepared in a sterile 96 well microtitre plate. Lid-associated pegs were rinsed in 0.9% saline for approximately 1-2 minutes. The peg lid was transferred to the recovery media (1.0% Tween 80 in CAMHB) then sonicated for 30 minutes to dislodge surviving biofilm. Following sonication, 100 μL from each well of the 96 well plate was placed into the first 12 wells of the first row of a 96 well microtiter plate. 180 μl of 0.9% sterile saline was placed in the remaining rows. A serial dilution (10^0-10^7) was prepared by moving 20 μl down each of the 8 rows. 20 μl from each well was removed and spot plated on a prepared TSA. In the remaining recovery plate, 100 μl of fresh growth media (1.0% Tween 80 in CAMHB) was placed in each well to replace the amount removed. The recovery plate was covered with a regular lid and incubated at 35±2° C. for 24 hours and read visually to confirm antimicrobial activity of the test compounds.
The compounds of the present disclosure have been tested regarding their efficiency to inhibit biofilm formation of Staphylococcus aureus U of C#18 (MRSA), Staphylococcus aureus 456 (MRSA), Staphylococcus epidermidis RP62A, and Pseudomonas aeruginosa PAO1.

Structure (SMILES)	inhibition at 100 µM
CCCCCCCCCCNC(=O)Nc1ccnn1CC [Example 64, 1-decyl-3-(1-ethylpyrazol-5-yl)urea]	20 to 50%
CCCCCCCCCCNC(=O)Nc1cc(C2CC2)n[nH]1 [Example 65, 1-(3-cyclopropylpyrazol-5-yl)-3-decylurea]	> 50%
CCCCCCCCCCNC(=O)Nc1cc(C2CC2)nn1C [Example 66, 1-(3-cyclopropyl-1-methylpyrazol-5-yl)-3-decylurea]	> 50%
CCCCCCCCCCNC(=O)Nc1cc(C2CC2)nn1C(C)=O [Example 67, 1-(1-acetyl-3-cyclopropylpyrazol-5-yl)-3-decylurea]	> 50%
CCCCCCCCCCNC(=O)Nc1cc(C(C)(C)C)n[nH]1 [Example 68, 1-(3-tert-butylpyrazol-5-yl)-3-decylurea]	20 to 50%
CCCCCCCCCCNC(=O)N(C)c1cc(C(C)(C)C)nn1C [Example 69, 1-(3-tert-butyl-1-methylpyrazol-5-yl)-3-decyl-1-methylurea]	> 50%
CCCCCCCCCCNC(=O)Nc1cc(C)nn1C(C)(C)C [Example 70, 1-(1-tert-butyl-3-methylpyrazol-5-yl)-3-decylurea]	> 50%
CCCCCCCCCCNC(=O)Nc1cc(-c2ccccc2)nn1C [Example 71, 1-decyl-3-(1-methyl-3-phenylpyrazol-5-yl)urea]	< 20%
CCCCCCCCCCNC(=O)N(C)c1cc(-c2ccccc2)nn1C [Example 72, 3-decyl-1-methyl-1-(1-methyl-3-phenylpyrazol-5-yl)urea]	20 to 50%
CCCCCCCCCCNC(=O)/N=c1/cc(-c2ccccc2)n(C)n1C [Example 73, 1-decyl-3-(1,2-dimethyl-5-phenylpyrazol-3-ylidene)urea]	> 50%
CCCCCCCCCCNC(=O)Nc1cc(C)nn1-c1ccccc1 [Example 74, 1-decyl-3-(3-methyl-1-phenylpyrazol-5-yl)urea]	< 20%
CCCCCCCCCCNC(=O)Nc1nnc(C2CC2)s1 [Example 75, 1-(5-cyclopropyl-1,3,4-thiadiazol-2-yl)-3-decylurea]	20 to 50%
CCCCCCCCCCNC(=O)Nc1nnc(C(C)(C)C)s1 [Example 76, 1-(5-tert-butyl-1,3,4-thiadiazol-2-yl)-3-decylurea]	> 50%
CCCCCCCCCCNC(=O)Nc1nnc(-c2ccccc2)s1 [Example 77, 1-decyl-3-(5-phenyl-1,3,4-thiadiazol-2-yl)urea]	< 20%
CCCCCCCCCCNC(=O)Nc1nc(C(C)(C)C)cs1 [Example 78, 1-(4-tert-butylthiazol-2-yl)-3-decylurea]	20 to 50%
CCCCCCCCCCNC(=O)Nc1nc(-c2ccccc2)cs1 [Example 79, 1-decyl-3-(4-phenylthiazol-2-yl)urea]	20 to 50%
CCCCCCCCCCCNC(=O)Nc1cc(C2CC2)nn1C [Example 80, 1-(3-cyclopropyl-1-methylpyrazol-5-yl)-3-undecylurea]	20 to 50%
CCCCCCCCCCCNC(=O)Nc1cc(C(C)(C)C)nn1C [Example 81, 1-(3-tert-butyl-1-methylpyrazol-5-yl)-3-undecylurea]	> 50%
CCCCCCCCCCCNC(=O)Nc1cc(-c2ccccc2)nn1C [Example 82, 1-(1-methyl-3-phenylpyrazol-5-yl)-3-undecylurea]	< 20%
CCCCCCCCCCCCNC(=O)Nc1cc(C)nn1C [Example 83, 1-(1,3-dimethylpyrazol-5-yl)-3-dodecylurea]	20 to 50%
CCCCCCCCCCCCNC(=O)Nc1cc(C2CC2)nn1C [Example 84, 1-(3-cyclopropyl-1-methylpyrazol-5-yl)-3-dodecylurea]	< 20%

Structure (SMILES)	inhibition at 100 µM
CCCCCCCCCCCCNC(=O)Nc1cc(C(C)(C)C)nn1C [Example 85, 1-(3-tert-butyl-1-methylpyrazol-5-yl)-3-dodecylurea]	> 50%
CCCCCCCCCCCCNC(=O)Nc1cc(-c2ccccc2)nn1C [Example 86, 1-dodecyl-3-(1-methyl-3-phenylpyrazol-5-yl)urea]	< 20%
CCCCCCCCCCCCCCNC(=O)Nc1cc(C)nn1C [Example 87, 1-(1,3-dimethylpyrazol-5-yl)-3-tetradecylurea]	< 20%
CCCCCCCCCCCCCCNC(=O)Nc1cc(C(C)(C)C)nn1C [Example 88, 1-(3-tert-butyl-1-methylpyrazol-5-yl)-3-tetradecylurea]	> 50%
CCCCCCCCCCCCCCCCNC(=O)Nc1cc(C)nn1C [Example 89, 1-(1,3-dimethylpyrazol-5-yl)-3-hexadecylurea]	< 20%
CCCCCCCCCCCCCCCCNC(=O)Nc1cc(C2CC2)nn1C [Example 90, 1-(3-cyclopropyl-1-methylpyrazol-5-yl)-3-hexadecylurea]	< 20%
CCCCCCCCCCCCCCCCNC(=O)Nc1cc(C(C)(C)C)nn1C [Example 91, 1-(3-tert-butyl-1-methylpyrazol-5-yl)-3-hexadecylurea]	20 to 50%
CCCCCCCCCCCCCCCCCCNC(=O)Nc1cc(C)nn1C [Example 92, 1-(1,3-dimethylpyrazol-5-yl)-3-octadecylurea]	< 20%
CCCCCCCCCCCCCCCCCCNC(=O)Nc1cc(C2CC2)nn1C [Example 93, 1-(3-cyclopropyl-1-methyrpyrazol-5-yl)-3-octadecylurea]	< 20%
CCCCCCCCCCCCCCCCCCNC(=O)Nc1cc(C(C)(C)C)nn1C [Example 94, 1-(3-tert-butyl-1-methylpyrazol-5-yl)-3-octadecylurea]	20 to 50%
CCCCCCCCCC(=O)NC(=O)N(C)c1ccc(F)cc1 [Example 95, N-((4-fluorophenyl)(methyl)carbamoyl)decanamide]	> 50%
CCCCCCCCCC(=O)NC(=O)Nc1ccccc1C(F)(F)F [Example 96, N-(2-(trifluoromethyl)phenylcarbamoyl)decanamide]	< 20%
CCCCCCCCCC(=O)NC(=O)N[C@@H](C)c1ccccc1 [Example 97, (S)-N-(1-phenylethylcarbamoyl)decanamide]	20 to 50%
CCCCCCCCCC(=O)NC(=O)N[C@H](C)c1ccccc1 [Example 98, (R)-N-(1-phenylethylcarbamoyl)decanamide]	> 50%
CCCCCCCCCC(=O)NC(=O)Nc1ccnn1C [Example 99, N-(1-methylpyrazol-5-ylcarbamoyl)decanamide]	20 to 50%
CCCCCCCCCC(=O)NC(=O)Nc1cc(C)nn1C [Example 100, N-(1,3-dimethylpyrazol-5-ylcarbamoyl)decanamide]	20 to 50%
CCCCCCCCCC(=O)NC(=O)Nc1cc(C)ns1 [Example 101, N-(3-methylisothiazol-5-ylcarbamoyl)decanamide]	20 to 50%
CCCCCCCCCOCC(=O)N(C)c1ccc(F)cc1 [Example 102, N-(4-fluorophenyl)-N-methyl-2-(nonyloxy)acetamide]	20 to 50%
CCCCCCCCCOCC(=O)Nc1ccc(F)cc1C(F)(F)F [Example 103, N-(4-fluoro-2-(trifluoromethyl)phenyl)-2-(nonyloxy)acetamide]	20 to 50%
CCCCCCCCCOCC(=O)N[C@@H](C)c1ccccc1 [Example 104, (S)-2-(nonyloxy)-N-(1-phenylethyl)acetamide]	> 50%
